Laboratory results: article PMC10726358 (Journal of Medicinal Chemistry, 2023)
pIC50: −log10 of the molar value. In brackets after ≈: the same amount, converted by molar mass. Several values for one entry are separate records, joined by “and”; a condition that tells them apart may be missing. Equal entries are not always repeated. Structures can show the parent of a compound that is named as a salt. Where two headings read alike, the source gives them in different places.

How the values were obtained:
[1] = Chromatographic LogD at pH 7.4
BRD4 BD2 = BRD4 BD2 TR-FRET assay; type: binding, human
Procedure: (§1) As a strategic decision, every compound synthesized across all of GSK’s bromodomain research projects was tested in both a BRD4 BD1 and a BRD4 BD2 TR-FRET assay as part of tier 1 data generation. […] LipE is a straightforward, yet powerful metric for medicinal chemistry teams to normalize potency relative to lipophilicity, a critical factor both for parameters of the human dose equation and also for promiscuity.[43],[44] To aid interpretation, diagonal lines representing different LipE values are shown, with the most desirable space found toward the top left-hand area of the plot representing molecules with the comparatively highest potency per unit of lipophilicity.
(§2) All TR-FRET and hWB cytokine assays have been described previously.[54]

BRD4 BD1 = type: binding, human; settings: TR-FRET
Procedure: as §1, §2

CAD aqueous solubility = experiment: CAD aqueous solubility
Procedure: (§3) To understand cellular target engagement, 21 was tested in an LPS-stimulated hWB assay measuring inhibition of the inflammatory mediator MCP-1 secretion.
ChromatographicLogD at pH 7.4, artificial membrane permeability, CLND solubility, and CAD solubility were measured using published protocols.[55]

MCP-1 = experiment: LPS-stimulated human whole blood (hWB) MCP-1 release assay; type: cell-based; settings: for IC50: read-out: hWB MCP-1 pIC50 (converted)
Description: The utility of a chemical probe in target validation is directly related to its quality, with important publications detailing requirements to aid researchers.[36]−[38] […] It was accepted that selectivity would be judged initially through a mutant BRD4 TR-FRET assay and would likely shift depending on the protein construct and assay format. […] Previous studies have shown that BET BD1 inhibition is sufficient to inhibit in vitro production of MCP-1 in LPS-stimulated hWB and, as such, served as a relevant measure of cellular target engagement and, concomitantly, proof of cellular permeability.[12],[39] Selectivity over other human bromodomains outside of the BET family, known collectively as non-BET bromodomains, was also required,[40] with a ≥ 100-fold selectivity window targeted. To ensure the molecules remained within developable chemical space, a target property forecast index (PFI) as defined by chromLogDpH7.4 + number of aromatic rings ≤6 was set.[41]
as §3, §2

[2] = CLND kinetic aqueous solubility
[3] = LPS-stimulated human whole blood

Compound	chromatographic logD ([1]; pH 7.4)	BRD4 BD2 FRET pIC50 (BRD4 BD2)	BRD4 BD1 FRET pIC50 (BRD4 BD1)	fold selectivity (BRD4 BD1 over BRD4 BD2) (BRD4 BD1)	solubility (CAD aqueous solubility)	IC50 (MCP-1; [3])	PFI (property forecast index) ([1]; chromLogDpH7.4 + number of aromatic rings)	pIC50 (BRD4 BD1; read-out: BRD4 BD1 potency (IC50))	solubility ([2]; aqueous)	pIC50 (MCP-1; LPS-stimulated human whole blood, read-out: hWB MCP-1 IC50)	drop of hWB activity compared to BRD4 BD1 potency (MCP-1; hWB MCP-1 vs BRD4 BD1 TR-FRET)	chromLogDpH7.4 ([1]; pH 7.4)	solubility [2]
CC(=O)N1CCC(C(=O)N2CCC[C@@H](Cn3c(-c4cc(C)c(=O)n(C)c4)nc4ccccc43)C2)CC1 [Compound 33, (S)-5-(1-((1-(1-Acetylpiperidine-4-carbonyl)piperidin-3-yl)methyl)-1H-benzo[d]imidazole-2-yl)-1,3-dimethylpyridin-2(1H)-one]	2.2	4.7	6.5	63 fold	≥ 205 µg/mL	2000 nM	–	–	–	–	–	–	–
Cc1cc(-c2nc3ccccc3n2C[C@@H]2CCCN(C(=O)C3CCOCC3)C2)cn(C)c1=O [Compound 32, (S)-1,3-Dimethyl-5-(1-((1-(tetrahydro-2H-pyran-4-carbonyl)piperidin-3-yl)methyl)-1H-benzo[d]imidazole-2-yl)pyridin-2(1H)-one]	2.7	4.7	6.7	100 fold	≥ 245 µg/mL	794 nM	–	–	–	–	–	–	–
Cc1cc(-c2nc3ccccc3n2C[C@@H]2CCCN(C(=O)[C@H]3C[C@H](N)C3)C2)cn(C)c1=O [Compound 23, 5-(1-(((S)-1-((1r,3S)-3-Aminocyclobutane-1-carbonyl)piperidin-3-yl)methyl)-1H-benzo[d]imidazole-2-yl)-1,3-dimethylpyridin-2(1H)-one]	1.2	5.4	7.9	316 fold	≥ 230 µg/mL	200 nM	–	–	–	–	–	–	–
Cc1cc(-c2nc3ccccc3n2C[C@@H]2CCCN(C(=O)C3CCN(C)CC3)C2)cn(C)c1=O [Compound 30, (S)-1,3-Dimethyl-5-(1-((1-(1-methylpiperidine-4-carbonyl)piperidin-3-yl)methyl)-1H-benzo[d]imidazole-2-yl)pyridin-2(1H)-one]	1.5	4.8	7.6	631 fold	≥ 237 µg/mL	251 nM	–	–	–	–	–	–	–
Cc1cc(-c2nc3ccccc3n2C[C@@H]2CCCN(C(=O)C3CCNCC3)C2)cn(C)c1=O [Compound 27, (S)-1,3-Dimethyl-5-(1-((1-(piperidine-4-carbonyl)piperidin-3-yl)methyl)-1H-benzo[d]imidazole-2-yl)pyridin-2(1H)-one]	1.3	4.9	7.5	398 fold	≥ 215 µg/mL	1000 nM	–	–	–	–	–	–	–
CC(=O)N1CCC[C@@H](Cn2c(-c3cc(C)c(=O)n(C)c3)nc3ccccc32)C1 [(S)-12, (S)-5-(1-((1-Acetylpiperidin-3-yl)methyl)-1H-benzo[d]imidazole-2-yl)-1,3-dimethylpyridin-2(1H)-one]	2.2	6.2	8.0	63 fold	–	–	5.2	8.00	≥ 247 µg/mL	–	–	–	–
Cc1cc(-c2nc3ccccc3n2C[C@@H]2CCCN(C(=O)CCCN)C2)cn(C)c1=O [Compound 21, (S)-5-(1-((1-(4-Aminobutanoyl)piperidin-3-yl)methyl)-1H-benzo[d]imidazole-2-yl)-1,3-dimethylpyridin-2(1H)-one]	1.2	5.6	7.8	158 fold	113 µg/mL (≈ 268 µM)	501 nM	–	–	–	6.30	40 fold	–	–
Cc1cc(-c2nc3ccccc3n2C[C@@H]2CCCN(C(=O)C3CCN(CC(F)(F)F)CC3)C2)cn(C)c1=O [Compound 36, (S)-1,3-Dimethyl-5-(1-((1-(1-(2,2,2-trifluoroethyl)piperidine-4-carbonyl)piperidin-3-yl)methyl)-1H-benzo[d]imidazole-2-yl)pyridin-2(1H)-one]	4.2	4.7	6.3	40 fold	≥ 201 µg/mL	1260 nM	–	–	–	–	–	–	–
Cc1cc(-c2nc3ccccc3n2C[C@@H]2CCCN(C(=O)C3CCC(N)CC3)C2)cn(C)c1=O (stereo in doubt) [Compound 28, 5-(1-(((S)-1-((1r,4R)-4-Aminocyclohexane-1-carbonyl)piperidin-3-yl)methyl)-1H-benzo [d]imidazole-2-yl)-1,3-dimethylpyridin-2(1H)-one]	1.4	5.1	7.9	631 fold	≥ 155 µg/mL	316 nM	–	–	–	–	–	–	–
Cc1cc(-c2nc3ccccc3n2C[C@@H]2CCCN(C(=O)C3CCCN(C)C3)C2)cn(C)c1=O (stereo partly drawn) [Compound 29, 1,3-Dimethyl-5-(1-(((3S)-1-(1-methylpiperidine-3-carbonyl)piperidin-3-yl)methyl)-1H-benzo[d]imidazole-2-yl)pyridin-2(1H)-one]	1.7	5.1	6.8	50 fold	≥ 204 µg/mL	1580 nM	–	–	–	–	–	–	–
Cc1cc(-c2nc3ccccc3n2CC2CCOCC2)cn(C)c1=O [Compound 13]	–	6.4	7.2	6 fold	–	–	–	–	≥ 142 µg/mL	–	–	2.7	–
Cc1cc(-c2nc3ccccc3n2C[C@@H]2CCCN(C(=O)[C@H]3CCNC3)C2)cn(C)c1=O [Compound 24, 1,3-Dimethyl-5-(1-(((S)-1-((S)-pyrrolidine-3-carbonyl)piperidin-3-yl)methyl)-1H-benzo[d]imidazole-2-yl)pyridin-2(1H)-one]	1.3	5.3	7.6	200 fold	≥ 208 µg/mL	1000 nM	–	–	–	–	–	–	–
Cc1cc(-c2nc3ccccc3n2C[C@@H]2CCCN(C(=O)C3CNC3)C2)cn(C)c1=O [Compound 22, (S)-5-(1-((1-(Azetidine-3-carbonyl)piperidin-3-yl)methyl)-1H-benzo[d]imidazole-2-yl)-1,3-dimethylpyridin-2(1H)-one]	1.2	5.9	8.0	126 fold	≥ 169 µg/mL	631 nM	–	–	–	–	–	–	–
CC(=O)N1CCC[C@@H](Cn2c(-c3cc(C)c(=O)n(C)c3)nc3cc(Br)ccc32)C1 [Compound 14, (S)-5-(1-((1-Acetylpiperidin-3-yl)methyl)-5-bromo-1H-benzo[d]imidazole-2-yl)-1,3-dimethylpyridin-2(1H)-one]	3.3	6.3 ± 0.01 (2)	8.0 ± 0.06 (2)	50 fold	–	–	–	–	–	–	–	–	≥ 250 µg/mL
CC(=O)N1CCC[C@H](Cn2c(-c3cc(C)c(=O)n(C)c3)nc3ccccc32)C1 [(R)-12, (R)-5-(1-((1-Acetylpiperidin-3-yl)methyl)-1H-benzo[d]imidazole-2-yl)-1,3-dimethylpyridin-2(1H)-one]	2.3	6.3	7.5	16 fold	–	–	–	–	≥ 169 µg/mL	–	–	–	–
Cc1cc(-c2nc3ccccc3n2C[C@@H]2CCCN(C(=O)[C@H]3CC[C@H](N)C3)C2)cn(C)c1=O [Compound 25, 5-(1-(((S)-1-((1S,3S)-3-Aminocyclopentane-1-carbonyl)piperidin-3-yl)methyl)-1H-benzo[d]imidazole-2-yl)-1,3-dimethylpyridin-2(1H)-one]	1.4	5.0	7.7	500 fold and 501 fold	≥ 157 µg/mL	1000 nM	–	–	–	–	–	–	–
Cc1cc(-c2nc3ccccc3n2C[C@@H]2CCCN(C(=O)c3cnc[nH]3)C2)cn(C)c1=O [Compound 26, (S)-5-(1-((1-(1H-Imidazole-5-carbonyl)piperidin-3-yl)methyl)-1H-benzo[d]imidazole-2-yl)-1,3-dimethylpyridin-2(1H)-one, Formic Acid Salt]	1.9	4.9	7.0	126 fold	≥ 160 µg/mL	2510 nM	–	–	–	–	–	–	–
